This assay has as its system SNB-75 CNS. Put plainly: NCI tumour cell line growth inhibition, 48 h.

Where “and” joins values, the source holds several entries; their conditions need not be identical. Identical values can stand only once.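 A five-concentration, 48-hour dose response in 96-well plates underlies each endpoint, interpolated linearly between surrounding concentrations. Here, GI50 denotes the concentration required for 50% inhibition of growth. TGI denotes the concentration required for complete inhibition of growth.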

Take `c1ccc2c(c1)[nH]c1c2nc2sccn21`: the GI50 is 20.6 µM and 44.8 µM; the TGI is over 100 µM.

Values taken from PubChem BioAssay (NCI).
